Consider 18 molecules from US9670227B2, “Thienopyrimidine derivatives, a process for their preparation and pharmaceutical compositions containing them” (LES LABORATOIRES SERVIER, priority 2013, dated 2017).

The structures appear in SMILES notation. Like-named read-outs stand apart in the source and are kept apart here.

One experiment has as its target Mcl-1 protein (UniProtKB primary accession number: Q07820) (Homo sapiens, UniProt Q07820). The experiment can be described thus: Inhibition of Mcl-1 by fluorescence polarisation, Method 1. It counts as binding. Particulars: read-out: IC50 (M) Mcl-1 FP. The procedure, abridged: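 Fluorescence polarisation competition with an 11-point compound dilution series (final DMSO 5%). Mcl-1 protein at 5 nM and fluorescein-labelled ligand at 1 nM (final) in 10 mM HEPES, 150 mM NaCl, 0.05% Tween 20, pH 7.4.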
A general note: Polarisation of emitted light reports the rotation of a fluorescent probe.

The test system of experiment [1] is H929 multiple myeloma tumour line. The experiment can be described thus: In vitro cytotoxicity, Microculture Tetrazolium Assay. It counts as cell-based. The following applies: Homo sapiens, NCI-H929, 48 h, H929 cells, 48 hours exposure, MTT; read-out: IC50 (μM) MTT H929. As to the method:
The cytotoxicity studies were carried out on the H929 multiple myeloma tumour line.
The cells are distributed onto microplates and exposed to the test compounds for 48 hours.

[2] abbreviates: fluorescence polarisation test, Method 2 values are underlined in the patent (underlining not visible here).
[3] abbreviates: fluorescence polarisation, Method 1, or Method 2.

Mcl-1 protein, sequence (Q07820 whole entry): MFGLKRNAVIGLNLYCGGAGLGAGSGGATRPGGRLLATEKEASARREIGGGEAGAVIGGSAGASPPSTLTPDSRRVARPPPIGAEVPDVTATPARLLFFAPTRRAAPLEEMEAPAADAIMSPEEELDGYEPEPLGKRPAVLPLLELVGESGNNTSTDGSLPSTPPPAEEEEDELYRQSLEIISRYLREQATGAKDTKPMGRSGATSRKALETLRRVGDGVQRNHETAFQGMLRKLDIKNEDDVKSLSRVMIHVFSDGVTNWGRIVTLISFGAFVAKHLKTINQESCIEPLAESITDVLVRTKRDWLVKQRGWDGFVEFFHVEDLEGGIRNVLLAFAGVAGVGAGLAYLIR

By IC50 is commonly meant the concentration at which inhibition is half-maximal. For the molecule `Cc1cc(COc2ccccc2CC(Oc2ncnc3sc(-c4ccc(F)o4)c(-c4ccc(OCCN5CCN(C)CC5)c(Cl)c4C)c23)C(=O)O)ncn1` [Example 161, (2R)-2-{[(5Sa)-5-{3-chloro-2-methyl-4-[2-(4-methylpiperazin-1-yl)ethoxy]phenyl}-6-(5-fluorofuran-2-yl)thieno[2,3-d]pyrimidin-4-yl]oxy}-3-{2-[(6-methylpyrimidin-4-yl)methoxy]phenyl}propanoic acid], the IC50 at Mcl-1 protein (setting [2]) stood at 3.9e-09 M; in experiment [1], 0.081 µM.

Turning to `COc1ccnc(COc2ccccc2CC(Oc2ncnc3sc(-c4ccco4)c(-c4ccc(OCCN5CCN(C)CC5)c(Cl)c4C)c23)C(=O)O)c1` [Example 223, (2R)-2-{[(5Sa)-5-{3-chloro-2-methyl-4-[2-(4-methylpiperazin-1-yl)ethoxy]phenyl}-6-(furan-2-yl)thieno[2,3-d]pyrimidin-4-yl]oxy}-3-{2-[(4-methoxypyridin-2-yl)methoxy]phenyl}propanoic acid], the IC50 at Mcl-1 protein (setting [2]) amounted to 1.4e-08 M; in experiment [1], 0.346 µM.

For the molecule `Cc1c(-c2c(-c3ccco3)sc3ncnc(OC(Cc4ccccc4OCC4CCCC4)C(=O)O)c23)ccc(OCCN2CCN(C)CC2)c1Cl` [Example 239, (2R)-2-{[(5Sa)-5-{3-chloro-2-methyl-4-[2-(4-methylpiperazin-1-yl)ethoxy]phenyl}-6-(furan-2-yl)thieno[2,3-d]pyrimidin-4-yl]oxy}-3-[2-(cyclopentylmethoxy)phenyl]propanoic acid], the concentration for half-maximal inhibition (IC50) at Mcl-1 protein (setting [2]) turned out to be 1.1e-08 M; in experiment [1] it was 0.55 µM.

Turning to `COc1cc(-c2sc3ncnc(OC(Cc4ccccc4OCC(F)(F)F)C(=O)O)c3c2-c2ccc(OCCN3CCN(C)CC3)c(Cl)c2C)ccc1F` [Example 380, (2R)-2-{[(5Sa)-5-{3-chloro-2-methyl-4-[2-(4-methylpiperazin-1-yl)ethoxy]phenyl}-6-(4-fluoro-3-methoxyphenyl)thieno[2,3-d]pyrimidin-4-yl]oxy}-3-[2-(2,2,2-trifluoroethoxy)phenyl]propanoic acid], the IC50 at Mcl-1 protein (setting [2]) was 1.1e-08 M; in experiment [1], 0.162 µM.

Take `CCCCn1nccc1COc1ccccc1CC(Oc1ncnc2sc(-c3ccc(O)cc3)c(-c3ccc(OCCN4CCN(C)CC4)c(Cl)c3C)c12)C(=O)O` [Example 602, (2R)-3-{2-[(1-butyl-1H-pyrazol-5-yl)methoxy]phenyl}-2-{[(5Sa)-5-{3-chloro-2-methyl-4-[2-(4-methylpiperazin-1-yl)ethoxy]phenyl}-6-(4-hydroxyphenyl)thieno[2,3-d]pyrimidin-4-yl]oxy}propanoic acid]: the IC50 on Mcl-1 protein (setting [3]) stood at 3.7e-09 M; in experiment [1], 0.156 µM.

In the case of `CCCCn1nccc1COc1ccccc1CC(Oc1ncnc2sc(C(F)(F)F)c(-c3ccc(OCCN4CCN(C)CC4)c(Cl)c3C)c12)C(=O)O` [Example 615, (2R)-3-{2-[(1-butyl-1H-pyrazol-5-yl)methoxy]phenyl}-2-{[(5Sa)-5-{3-chloro-2-methyl-4-[2-(4-methylpiperazin-1-yl)ethoxy]phenyl}-6-(trifluoromethyl)thieno[2,3-d]pyrimidin-4-yl]oxy}propanoic acid], the IC50 at Mcl-1 protein (setting [3]) was found to be 8e-10 M; in experiment [1], 0.292 µM.

Regarding `Cc1c(-c2c(-c3ccc(F)cc3)sc3ncnc(OC(Cc4ccccc4OCc4ccnc(C(F)(F)F)n4)C(=O)O)c23)ccc(OCCN2CCN(C)CC2)c1Cl` [Example 25, (2R)-2-{[(5Sa)-5-{3-chloro-2-methyl-4-[2-(4-methylpiperazin-1-yl)ethoxy]phenyl}-6-(4-fluorophenyl)thieno[2,3-d]pyrimidin-4-yl]oxy}-3-(2-{[2-(trifluoromethyl)pyrimidin-4-yl]methoxy}phenyl)propanoic acid], the IC50 came out at 5.6e-09 M at Mcl-1 protein (setting [2]) and 0.074 µM in experiment [1].

For `CC#Cc1sc2ncnc(OC(Cc3ccccc3OC)C(=O)O)c2c1-c1cc(OC)c(OCCN2CCN(C)CC2)c(Cl)c1C` [Example 477, (2R)-2-{[(5Sa)-5-{3-chloro-5-methoxy-2-methyl-4-[2-(4-methylpiperazin-1-yl)ethoxy]phenyl}-6-(prop-1-yn-1-yl)thieno[2,3-d]pyrimidin-4-yl]oxy}-3-(2-methoxyphenyl)propanoic acid], the half-inhibitory concentration (IC50) at Mcl-1 protein (setting [3]) is 5.6e-08 M; in experiment [1], 2.57 µM.

With `COCCOc1cccc(-c2sc3ncnc(OC(Cc4ccccc4OC)C(=O)O)c3c2-c2ccc(OCCN3CCN(C)CC3)c(Cl)c2C)c1` [Example 589, (2R)-2-[((5Sa)-5-{3-chloro-2-methyl-4-[2-(4-methylpiperazin-1-yl)ethoxy]phenyl}-6-[3-(2-methoxyethoxy)phenyl]thieno[2,3-d]pyrimidin-4-yl)oxy]-3-(2-methoxyphenyl)propanoic acid], the 50% inhibitory concentration (IC50) at Mcl-1 protein (setting [3]) came to 8.7e-09 M; in experiment [1], 0.233 µM.

Take `Cc1c(-c2c(-c3ccc(F)o3)sc3ncnc(OC(Cc4ccccc4OCc4cc(C(F)(F)F)ccn4)C(=O)O)c23)ccc(OCCN2CCN(C)CC2)c1Cl` [Example 159, (2R)-2-{[(5Sa)-5-{3-chloro-2-methyl-4-[2-(4-methylpiperazin-1-yl)ethoxy]phenyl}-6-(5-fluorofuran-2-yl)thieno[2,3-d]pyrimidin-4-yl]oxy}-3-(2-{[4-(trifluoromethyl)pyridin-2-yl]methoxy}phenyl)propanoic acid]: the half-maximal inhibitory concentration (IC50) was determined as 9.8e-09 M on Mcl-1 protein (setting [2]) and 0.246 µM in experiment [1].

Take `Cc1c(-c2c(-c3ccco3)sc3ncnc(OC(Cc4cccc(F)c4)C(=O)O)c23)ccc(OCCN2CCN(C)CC2)c1Cl` [Example 348, (2R)-2-{[(5Sa)-5-{3-chloro-2-methyl-4-[2-(4-methylpiperazin-1-yl)ethoxy]phenyl}-6-(furan-2-yl)thieno[2,3-d]pyrimidin-4-yl]oxy}-3-(3-fluorophenyl)propanoic acid]: the half-maximal inhibitory concentration (IC50) on Mcl-1 protein (setting [2]) came out at 2.1e-08 M; in experiment [1] it was 0.346 µM.

As for `CCCCn1nccc1COc1ccccc1CC(Oc1ncnc2sc(-c3ccc(Cl)nc3)c(-c3ccc(OCCN4CCN(C)CC4)c(Cl)c3C)c12)C(=O)O` [Example 606, (2R)-3-{2-[(1-butyl-1H-pyrazol-5-yl)methoxy]phenyl}-2-{[(5Sa)-5-{3-chloro-2-methyl-4-[2-(4-methylpiperazin-1-yl)ethoxy]phenyl}-6-(6-chloropyridin-3-yl)thieno[2,3-d]pyrimidin-4-yl]oxy}propanoic acid], the IC50 worked out at 4e-09 M at Mcl-1 protein (setting [3]) and 0.064 µM in experiment [1].

For the molecule `Cc1c(-c2c(-c3ccc(F)cc3)sc3ncnc(OC(Cc4ccccc4OCc4ccnc(-c5cccs5)n4)C(=O)O)c23)ccc(OCCN2CCN(C)CC2)c1Cl` [Example 33, (2R)-2-{[(5Sa)-5-{3-chloro-2-methyl-4-[2-(4-methylpiperazin-1-yl)ethoxy]phenyl}-6-(4-fluorophenyl)thieno[2,3-d]pyrimidin-4-yl]oxy}-3-(2-{[2-(thiophen-2-yl)pyrimidin-4-yl]methoxy}phenyl)propanoic acid], the half-inhibitory concentration (IC50) at Mcl-1 protein (setting [2]) worked out at 7.8e-09 M; in experiment [1], 0.017 µM.

Take `COc1cc(COc2ccccc2CC(Oc2ncnc3sc(-c4ccc(F)o4)c(-c4ccc(OCCN5CCN(C)CC5)c(Cl)c4C)c23)C(=O)O)ncn1` [Example 162, (2R)-2-{[(5Sa)-5-{3-chloro-2-methyl-4-[2-(4-methylpiperazin-1-yl)ethoxy]phenyl}-6-(5-fluorofuran-2-yl)thieno[2,3-d]pyrimidin-4-yl]oxy}-3-{2-[(6-methoxypyrimidin-4-yl)methoxy]phenyl}propanoic acid]: the half-inhibitory concentration (IC50) on Mcl-1 protein (setting [2]) turned out to be 9.9e-09 M; in experiment [1] it was 0.027 µM.

As to `CCc1ccc(-c2sc3ncnc(OC(Cc4ccccc4OC)C(=O)O)c3c2-c2ccc(OCCN3CCN(C)CC3)c(Cl)c2C)o1` [Example 543, (2R)-2-{[(5Sa)-5-{3-chloro-2-methyl-4-[2-(4-methylpiperazin-1-yl)ethoxy]phenyl}-6-(5-ethylfuran-2-yl)thieno[2,3-d]pyrimidin-4-yl]oxy}-3-(2-methoxyphenyl)propanoic acid], the half-maximal inhibitory concentration (IC50) at Mcl-1 protein (setting [3]) was determined as 4.2e-08 M; in experiment [1] it was 0.766 µM.

Consider `Cc1c(-c2c(-c3ccc(F)o3)sc3ncnc(OC(Cc4ccccc4OCc4ccnn4CC(F)(F)F)C(=O)O)c23)ccc(OCCN(C)C)c1Cl` [Example 205, (2R)-2-{[(5Sa)-5-{3-chloro-4-[2-(dimethylamino)ethoxy]-2-methylphenyl}-6-(5-fluorofuran-2-yl)thieno[2,3-d]pyrimidin-4-yl]oxy}-3-(2-{[1-(2,2,2-trifluoroethyl)-1H-pyrazol-5-yl]methoxy}phenyl)propanoic acid], for which the concentration for half-maximal inhibition (IC50) on Mcl-1 protein (setting [2]) came out at 3.8e-09 M; in experiment [1], 0.028 µM.

For `Cc1c(-c2c(-c3ccc(Cl)o3)sc3ncnc(OC(Cc4ccccc4OCc4cncnc4)C(=O)O)c23)ccc(OCCN2CCN(C)CC2)c1Cl` [Example 375, (2R)-2-{[6-(5-chlorofuran-2-yl)-(5Sa)-5-{3-chloro-2-methyl-4-[2-(4-methylpiperazin-1-yl)ethoxy]phenyl}thieno[2,3-d]pyrimidin-4-yl]oxy}-3-[2-(pyrimidin-5-ylmethoxy)phenyl]propanoic acid], the 50% inhibitory concentration (IC50) at Mcl-1 protein (setting [2]) worked out at 5.6e-09 M; in experiment [1], 0.081 µM.

For `Cc1c(-c2c(-c3ccc(F)cc3)sc3ncnc(OC(Cc4ccccc4OCc4ccnc(CCN(C)C)n4)C(=O)O)c23)ccc(OCCN2CCN(C)CC2)c1Cl` [Example 43, (2R)-2-{[(5Sa)-5-{3-chloro-2-methyl-4-[2-(4-methylpiperazin-1-yl)ethoxy]phenyl}-6-(4-fluorophenyl)thieno[2,3-d]pyrimidin-4-yl]oxy}-3-[2-({2-[2-(dimethylamino)ethyl]pyrimidin-4-yl}methoxy)phenyl]propanoic acid], the 50% inhibitory concentration (IC50) on Mcl-1 protein (setting [2]) worked out at 9.8e-09 M; in experiment [1], 0.465 µM.
